For series [1], the system named is FaDu human head and neck cancer. Briefly: Subcutaneous FaDu human head and neck cancer xenograft in immunosuppressed mice. The series is classed as in vivo. On the procedure:
In the studies shown in FIG. 8, immunosuppressed mice with established subcutaneous FaDu human head and neck cancer were given indicated amount of hand grounded Compound 1 with Crystal Form 1, or vehicle control orally (po). Compound 1 was formulated in […]™. All regimens were administered daily (qd). Tumor sizes were evaluated periodically during treatment.
In the study shown in FIG. 9, immunosuppressed mice with established subcutaneous FaDu human head and neck cancer were given 100 mg/kg of micronized Compound 1 produced with the synthetic process described in FIGS. 5A and 5B (first crop), or vehicle control orally (po). Compound 1 was formulated in […]™. All regimens were administered daily (qd). Tumor sizes were evaluated periodically during treatment. Form 2 has been successfully manufactured by a current good manufacturing practice (cGMP) process and received approval from the FDA and Health Canada to be used in clinical trials.
Form 3 can only be generated from Form 1 using a specially designed slurry process described herein. […] In the study shown in FIG. 10, immunosuppressed mice with established subcutaneous FaDu human head and neck cancer were given 200 mg/kg of Compound 1 with hand grounded Crystal Form 1 or Form 3, or vehicle control orally (po). Compound 1 was formulated in gelucire. All regimens were administered daily (qd). Tumor sizes were evaluated periodically during treatment. This polymorph has been successfully manufactured by a cGMP process and received approval from FDA and Health Canada to be used in clinical trials.
The anti-tumor activity of particles of Compound 1 with different particle size ranges is illustrated in FIG. 15, and the pharmacokinetic data for particles of Compound 1 with different particle size ranges is illustrated in FIGS. 16-18. In the study shown in FIG. 15, immunosuppressed mice with established subcutaneous FaDu human head and neck cancer were given indicated amount of Compound 1 with indicated particle size, or vehicle control orally (po). All regimens were administered daily (qd). Tumor size was evaluated periodically.
In an experiment, a formulation of Compound 1 particles sieved to 160 micron was tested in the model of immunosuppressed mice with established subcutaneous xenograft FaDu human head and neck cancer. The pharmaceutical composition was formulated as 80 mg/ml in 9% Gelucire, 20% Vitamin E TPGS (Table 3). […] All regimens were administered daily (qd).
In an experiment, Compound 1 crystals were milled to a median particle size of about 20 micron. […] All regimens were administered daily (qd).
FaDu human head and neck cancer cells were inoculated subcutaneously into female athymic nude mice (6×10^6 cells/mouse) and allowed to form palpable tumors. When the tumors reached approximately 100 mm^3, the animals were treated orally (po) with Compound 1 at 100 mg/kg or vehicle control daily. Compound 1 was formulated at 10 mg/ml in 20% gelucire. Tumors and bodyweights were measured throughout treatment (FIG. 15).
(§1) Daily examinations into the health status of each animal were also conducted. Body weights were checked every three days. Food and water was supplied daily according to the animal husbandry procedures of the facility. Treatment producing >20% lethality and or >20% net body weight loss were considered toxic. Results are expressed as mean tumor volume (mm^3)±SE. P Values <0.05 are considered to be statistically relevant.
Male or female athymic nude mice 4-5 weeks (Charles River Laboratories, Wilmington, Mass.), were acclimated to the animal housing facility for at least 1 week before study initiation. […]

A short description of series [2]: Phase I clinical trial: plasma pharmacokinetics. The series is classed as in vivo, human.
Description: A cycle consists of twice-daily oral administration of the compound for 4 weeks. Cycles were repeated every 4 weeks (28 days) until progression of disease, unacceptable toxicity, or another discontinuation criterion is met. The dose escalation trial was conducted as open label and multicenter trial. A modified Simon accelerated titration scheme was used for dose escalation.
The primary objective of the trial was to determine the safety, tolerability, and recommended phase II dose (RP2D). The secondary objectives of the trial were to determine the pharmacokinetic profile of the compound, pharmacodynamics of the compound, and preliminary antitumor activity of the compound.
The test system of a further series is advanced solid tumors. Briefly: Phase I clinical trial: tumor response (RECIST 1.1). The format is in vivo, human. The text has this: Of the 42 patients dosed, 24 were evaluable for tumor response as of Feb. 7, 2011; 16 (16/24 evaluable patients) achieved stable disease (8 to 75+ weeks).
Series [3] can be described thus: Toxicity (body weight, deaths) in xenograft-bearing immunosuppressed mice. The settings on record: for mice died during the treatment: about 90% pure. The series is classed as in vivo. As to the method: All regimens were administered daily (qd). Body weights were evaluated periodically during treatment. Each point represents the mean±SEM of eight tumors. […] All regimens were administered daily (qd). Body weights were evaluated periodically during treatment. Each point represents the mean±SEM of eight tumors.
as §1

Series [4] is described as follows: Pharmacokinetics in mice of 2, 20, 150 micron particle size formulations. The format is in vivo. The settings on record: particle size 125-150 micron vs 2 and 20 micron, 100 mg/kg oral, 20% Gelucire 44/14, 1% Tween 80. On the procedure: In an experiment, micronized Compound 1 prepared in step 6 of Example 2 with a mean particle size of 2 micron, 20 microns, 150 microns were formulated as suspensions in 20% Gelucire 44/14 and 1% Tween 80 and administered orally to mice at 100 mg/kg. Each time point represents the average of 3 mice (FIG. 16).

The nature of series [5]: Phase I clinical trial: safety and tolerability. The format is in vivo, human. The text has this: Grade 3 or greater events include: fatigue and diarrhea.
A short description of series [6]: Concentration in patient urine. The format is in vivo, human. The conditions noted are these: patient 0001, 20 mg daily administration.
Another series relates to advanced cancers. The experiment in a line: Progression free survival of patients. The format is in vivo, human. The text has this:
FIG. 22 is a graph that illustrates the comparison of progression free survival of colorectal cancer patients treated with Compound 1. The progression free survival (PFS) of evaluable patients with colorectal cancer treated with Compound 1 was compared against historical PFS data for best supportive care in patients with colorectal cancer.
FIG. 23 is a graph that illustrates the comparison of progression free survival (PFS) versus pharmacokinetic exposure. The PFS of evaluable patients receiving Compound 1 was compared against Compound 1 exposure above or below 1.6 uM for at least 4 hours.

The test system of series [7] is cancer cells and normal cells. Briefly: Exposure concentration/time and selective killing of cancer versus normal cells. The series is classed as cell-based. On the procedure: The studies described herein discovered counter-intuitively that cancer cells and cancer stem cells requires much shorter exposure than normal cells to be killed by Compound 1. Normal cells can tolerate up to 24 hours of exposure to Compound 1. Furthermore, the studies here discovered that normal cells can recover after a short period of no-drug exposure, while cancer cells cannot recover once they are exposed to a certain concentration of the Compound 1 for at least 2 hours. Based on these studies, a special pharmacokinetic exposure [termed selective pharmacokinetic profile (SPP), or preferred pharmacokinetic profile (PPP), which is used interchangeably in this publication] was designed for Compound 1 using the data shown below in Table 14 for achieving selective antitumor activity in patients (FIG. 24).
The selective activity of Compound 1 in killing cancer cells and sparing normal cells is represented by the data in Table 14 and illustrated in FIG. 24.

For series [8], the system named is cancer cells and normal cells. The settings on record: literature reports (Hirai 1999; Takano 2009); cited from earlier work.
The mark [9] stands for this setting: crystal form used in clinical trials.
The mark [10] stands for this setting: particle size less than 5 micron.

Where “and” joins values, the source holds several entries; their conditions need not be identical. Equal entries are not always repeated. Entries after “also recorded” stand apart in the source; their conditions may differ.

Regarding `CC(=O)c1cc2c(o1)C(=O)c1ccccc1C2=O` [Crystal Form 2, 2-acetyl-4H, 9H-naphtho[2,3-b]furan-4,9-dione], the anti-tumor activity entry in series [1] (100 mg/kg micronized (first crop, process of FIGS. 5A-5B) in GELUCIRE, po, qd) is listed as “potent anti-tumor activity”. Moreover, the “pharmacokinetics in cancer patients” value in series [2] (setting [9]) is “desirable pharmacokinetics”. In addition, the “anti-tumor activity in cancer patients” value in the series on advanced solid tumors (setting [9]) is “strong signs of anti-tumor activity”.

As for `CC(=O)c1cc2c(o1)C(=O)c1ccccc1C2=O` [Crystal Form 3, 2-acetyl-4H, 9H-naphtho[2,3-b]furan-4,9-dione], in series [1] (200 mg/kg hand grounded, in gelucire, po, qd), the antitumor activity result is on record as “potent antitumor activities”.

Take `CC(=O)c1cc2c(o1)C(=O)c1ccccc1C2=O` [Compound 1, 2-acetylnaphtho[2,3-b]furan-4,9-dione]: the efficacy result is listed as “weak or moderate efficacy” in [1] (median particle size about 20 micron, 200 mg/kg oral daily) and “no or weak efficacy” in [1] (particle size greater than 20 micron). The anti-tumor activity result in [1] (nanoparticles, D50 about 100 nanometers) was “reduction of anti-tumor activity”; in series [1] (setting [10]), “potent anti-tumor activity”. In addition, the toxicity result in series [1] (setting [10]) is on record as “no observed toxicity”; in series [3] (about 90% pure Compound 1, GELUCIRE, po, qd), “Significant toxicity”. Also, the “mice died during the treatment” value is recorded as 4 in series [3] (mice with FaDu human head and neck cancer (first experiment)); 3 in series [3] (mice with MDA-231 human breast cancer (second experiment)). In addition, in series [3] (higher purity (about 95% or greater), mice with FaDu or MDA-231 xenografts, po, qd), the tolerability entry was “well-tolerated and showed no signs of toxicity”. In [4], the plasma exposure entry was “lower level of exposure”. In [5] (dose escalated from 20 mg to 2000 mg/day), the “maximum tolerated dose (MTD)” value is “not reached; also recorded: neither MTD nor RP2D has been reached”. The “Urine Color Change, # of Events” value in series [5] (human, in vivo) stood at 2; in series [5] (human, in vivo, 4 weeks) it was 0. Further, the “Urine Color Change, % of Total” value in series [5] (human, in vivo) is reported as 2.5%. In addition, the “time plasma concentration was sustained” value in [2] (320 mg/day dose level, at a concentration of at least 1.5 μM) is reported as “over 8 hours”. In addition, in series [2] (human, in vivo, 20 mg), the “clearance from the blood” value is recorded as “rapidly cleared from the blood”. Besides, the AUC0-24 in series [2] (human, in vivo, 320 mg) is 29.79 µM·h; in series [2] (human, in vivo, 800 mg), 26.43 µM·h; in [2] (human, in vivo, 1400 mg), 28.38 µM·h. Moreover, the “concentration of the compound in urine” value in series [6] is “high concentration”. Further, the “antitumor activity in a colon cancer lesion in kidney” value in the series on advanced solid tumors (20 mg QD) is listed as “signs of potent antitumor activity”. Also, in the series with advanced solid tumors (24 evaluable patients with advanced refractory cancers), the “evaluable patients showing no metastatic tumors” value was “over 80%”. The “response of colon cancer metastatic lesion to kidney” value in the series on advanced solid tumors (patient 0001, 20 mg daily) is listed as “complete regression”. For the same compound, the “Best Response, remark (CA 125)” value with advanced solid tumors (patient 0014, total daily dose 400 mg bid, Ovarian cancer) is reported as “CA 125 normalization”. The “Best Response, remark (CEA)” value with advanced solid tumors (patient 0015, total daily dose 400 mg bid, Colon adenocarcinoma) is recorded as “CEA ? >30-50%”. For the same compound, the “evaluable patients showing SD/MR by RECIST 1.1” value in the series on advanced solid tumors (tumors refractory to chemotherapies) was 16/24 and 16 out of 24. The progression free survival result in the series on advanced cancers (blood drug concentration above 1 uM, patients with diverse cancers) is given as “increase in progression free survival”; with advanced cancers (patients with exposure above 1.6 uM for at least 4 hours), “improvement in progression free survival”. Also, the “progression free survival (PFS)” value with advanced cancers (patients with advanced colorectal cancer refractory to chemotherapy) is recorded as “Prolongation of progression free survival”. Further, in series [7], the “exposure time tolerated by normal cells” value is “up to 24 hours”. The selectivity of killing result in series [7] (about or above 0.2 and 30 μM for about 4 hours up to about 24 hours) was “selective killing of cancer cells and sparing of normal cells”. The “toxicity to cancer cells versus normal cells” value in [8] was “equally toxic to cancer cells and normal cells”.

As to `CC(=O)c1cc2c(o1)C(=O)c1ccccc1C2=O` [Crystal Form 1, 2-acetyl-4H, 9H-naphtho[2,3-b]furan-4,9-dione], the anti-tumor activity entry in series [1] (hand grounded Crystal Form 1 in GELUCIRE, po, qd) was “limited anti-tumor activity; also recorded: low anti-tumor activity”.
